{
  "source": "paper PMC12106687",
  "about": "(Nature Communications, 2025)",
  "molecular_target": "HECTD1 (Homo sapiens, UniProt Q9ULT8)",
  "sequence (Q9ULT8 whole entry)": "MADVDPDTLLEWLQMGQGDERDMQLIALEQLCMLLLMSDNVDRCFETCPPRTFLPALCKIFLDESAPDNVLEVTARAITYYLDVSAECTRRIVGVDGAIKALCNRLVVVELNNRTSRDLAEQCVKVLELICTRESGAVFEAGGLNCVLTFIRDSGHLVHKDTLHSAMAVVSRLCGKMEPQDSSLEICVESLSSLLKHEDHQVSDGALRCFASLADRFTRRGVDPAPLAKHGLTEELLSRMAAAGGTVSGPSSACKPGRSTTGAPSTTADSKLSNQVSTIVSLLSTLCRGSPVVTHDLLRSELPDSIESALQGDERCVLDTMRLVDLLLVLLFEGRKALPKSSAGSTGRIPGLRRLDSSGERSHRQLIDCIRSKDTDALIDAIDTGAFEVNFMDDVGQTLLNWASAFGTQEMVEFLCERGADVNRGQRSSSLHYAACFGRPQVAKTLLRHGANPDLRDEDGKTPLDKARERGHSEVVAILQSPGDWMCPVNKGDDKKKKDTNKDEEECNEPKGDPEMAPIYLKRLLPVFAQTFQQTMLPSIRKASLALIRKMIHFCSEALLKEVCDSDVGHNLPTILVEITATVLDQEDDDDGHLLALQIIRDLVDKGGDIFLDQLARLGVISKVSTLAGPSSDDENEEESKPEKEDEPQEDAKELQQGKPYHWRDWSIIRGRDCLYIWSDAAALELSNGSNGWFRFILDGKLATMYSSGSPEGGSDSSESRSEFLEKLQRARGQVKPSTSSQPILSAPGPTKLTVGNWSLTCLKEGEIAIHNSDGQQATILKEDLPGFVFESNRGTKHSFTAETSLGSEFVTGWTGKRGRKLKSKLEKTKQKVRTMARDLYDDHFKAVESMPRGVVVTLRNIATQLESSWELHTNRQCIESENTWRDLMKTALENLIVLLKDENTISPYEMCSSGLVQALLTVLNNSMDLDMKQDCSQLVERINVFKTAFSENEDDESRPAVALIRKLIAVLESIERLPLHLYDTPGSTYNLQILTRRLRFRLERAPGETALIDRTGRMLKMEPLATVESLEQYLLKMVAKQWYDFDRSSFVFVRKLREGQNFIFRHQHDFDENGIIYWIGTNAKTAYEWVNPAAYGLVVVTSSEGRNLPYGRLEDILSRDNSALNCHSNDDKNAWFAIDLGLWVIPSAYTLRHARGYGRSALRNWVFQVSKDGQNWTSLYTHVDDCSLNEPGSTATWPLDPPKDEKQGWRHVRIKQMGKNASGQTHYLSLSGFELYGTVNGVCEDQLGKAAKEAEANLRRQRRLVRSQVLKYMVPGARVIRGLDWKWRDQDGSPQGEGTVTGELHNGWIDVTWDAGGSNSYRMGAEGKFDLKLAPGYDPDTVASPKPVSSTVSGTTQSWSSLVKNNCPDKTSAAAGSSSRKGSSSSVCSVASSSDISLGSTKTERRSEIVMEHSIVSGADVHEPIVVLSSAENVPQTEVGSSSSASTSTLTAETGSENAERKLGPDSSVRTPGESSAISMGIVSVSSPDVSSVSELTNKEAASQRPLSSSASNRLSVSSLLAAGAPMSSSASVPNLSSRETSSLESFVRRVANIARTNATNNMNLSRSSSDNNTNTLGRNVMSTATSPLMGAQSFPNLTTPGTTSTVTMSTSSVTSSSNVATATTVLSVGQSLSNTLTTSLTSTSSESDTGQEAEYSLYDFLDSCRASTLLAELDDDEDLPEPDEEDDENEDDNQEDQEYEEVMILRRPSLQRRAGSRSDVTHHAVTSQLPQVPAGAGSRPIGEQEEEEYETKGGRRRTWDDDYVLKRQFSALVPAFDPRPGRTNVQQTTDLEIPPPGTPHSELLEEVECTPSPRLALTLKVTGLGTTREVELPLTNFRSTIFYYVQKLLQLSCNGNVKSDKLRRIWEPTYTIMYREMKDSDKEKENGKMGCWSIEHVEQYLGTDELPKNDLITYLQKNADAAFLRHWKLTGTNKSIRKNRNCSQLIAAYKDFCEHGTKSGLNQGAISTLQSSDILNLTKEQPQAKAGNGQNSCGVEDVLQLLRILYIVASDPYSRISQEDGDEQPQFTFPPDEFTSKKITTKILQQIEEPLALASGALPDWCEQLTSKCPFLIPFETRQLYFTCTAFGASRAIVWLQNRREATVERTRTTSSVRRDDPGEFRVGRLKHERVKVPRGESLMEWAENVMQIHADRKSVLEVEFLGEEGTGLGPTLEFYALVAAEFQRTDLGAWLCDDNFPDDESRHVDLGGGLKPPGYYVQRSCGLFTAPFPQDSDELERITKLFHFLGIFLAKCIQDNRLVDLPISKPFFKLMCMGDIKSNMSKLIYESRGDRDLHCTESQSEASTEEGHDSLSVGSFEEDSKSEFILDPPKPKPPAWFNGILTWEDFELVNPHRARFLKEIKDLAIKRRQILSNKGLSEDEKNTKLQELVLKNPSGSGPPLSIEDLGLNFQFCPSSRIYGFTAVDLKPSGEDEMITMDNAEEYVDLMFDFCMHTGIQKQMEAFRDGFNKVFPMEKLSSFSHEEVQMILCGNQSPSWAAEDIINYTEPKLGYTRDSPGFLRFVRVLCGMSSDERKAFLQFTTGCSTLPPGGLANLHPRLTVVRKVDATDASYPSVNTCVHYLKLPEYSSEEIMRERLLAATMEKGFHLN",
  "assay": "in-cell competitive QTRP",
  "assay_type": "biochemical",
  "details": "covalent; C1368; […], […] h in HEK293T cells",
  "data": [
    {"smiles": "C=C(CC)C(=O)c1ccc(OCC(=O)O)c(Cl)c1Cl", "note": "[etacrynic acid]", "values": [
      {"measurement": "RH/L", "result": "the etacrynic acid-engaged C1368 of HECTD1 is spatially distant from the active site"}
    ]}
  ]
}
